Source: ChEMBL document CHEMBL1148183, “Anti-inflammatory activity of two flavonoids from Tanacetum microphyllum” (1993)
Activity calls are given as the source filed them. The rule behind the calls is not given here.

Key:
Mus musculus [1] = test: Antiinflammatory activity against carrageenan-induced paw edema in Swiss mouse at 80 mg/kg, po administered 1 hr before carrageenan challenge measured after 3 hrs; assay type: functional
Mus musculus [2] = test: Antiinflammatory activity against carrageenan-induced paw edema in Swiss mouse at 80 mg/kg, po administered 1 hr before carrageenan challenge measured after 5 hrs; assay type: functional
Mus musculus [3] = test: Antiinflammatory activity against carrageenan-induced paw edema in Swiss mouse at 25 mg/kg, po administered 1 hr before carrageenan challenge measured after 3 hrs; assay type: functional
Mus musculus [4] = test: Antiinflammatory activity against carrageenan-induced paw edema in Swiss mouse at 25 mg/kg, po administered 1 hr before carrageenan challenge measured after 5 hrs; assay type: functional
Mus musculus [5] = test: Antiinflammatory activity against carrageenan-induced paw edema in Swiss mouse at 10 mg/kg, po administered 1 hr before carrageenan challenge measured after 3 hrs; assay type: functional
Mus musculus [6] = test: Antiinflammatory activity against carrageenan-induced paw edema in Swiss mouse at 10 mg/kg, po administered 1 hr before carrageenan challenge measured after 5 hrs; assay type: functional
Mus musculus [7] = test: Antiinflammatory activity against carrageenan-induced paw edema in po dosed Swiss mouse administered 1 hr before carrageenan challenge measured after 7 hrs; assay type: functional, organism-based

Work on `CCCCC1C(=O)N(c2ccccc2)N(c2ccccc2)C1=O` [PHENYLBUTAZONE] yielded an inhibition in vivo at 80 mg/kg (Mus musculus [1]) of 51.4% and an inhibition in vivo at 80 mg/kg (Mus musculus [2]) of 47.2%.
`COc1ccc(-c2oc3cc(O)c(OC)c(O)c3c(=O)c2OC)cc1O` [CENTAUREIDIN] was tested, and the inhibition in vivo at 25 mg/kg (Mus musculus [3]) was 67.6% and the inhibition in vivo at 25 mg/kg (Mus musculus [4]) was 55.5%.
For `COC(=O)c1cc(O)c2c(=O)c(O)c(-c3ccc(OC)c(O)c3)oc2c1`, the inhibition in vivo at 10 mg/kg (Mus musculus [5]) was 64.9%, the inhibition in vivo at 10 mg/kg (Mus musculus [6]) was 52.7% and the Activity (Mus musculus [7]) was “Active”.
